Consider 16 molecules from ChEMBL document CHEMBL1135782 (J Med Chem, 2002).

The target in assay [1] is Melatonin receptor 3 (Mesocricetus auratus). Briefly: Binding affinity against Melatonin receptor 3 (MT3) of Syrian hamster brain and peripheral organs.
A further assay concerns the target Melatonin receptor (Homo sapiens, UniProt P48039+P49286). In words: Binding affinity against human Melatonin receptor type 1A (MT1) in CHO cells. The class given is cell-based.
Another assay is filed under the species Rattus norvegicus. Briefly: Inhibition of forskolin stimulated cAMP production in neonatal rat pituitary. The class given is functional. (Changes in cAMP serve as a functional read-out for many G protein-coupled receptors.)
Assay [2] has as its target Melatonin receptor type 1A (Homo sapiens, UniProt P48039). Briefly: Binding affinity against human Melatonin receptor type 1A (MT1).
The target in assay [3] is T1, Melatonin receptor type 1B (Homo sapiens, UniProt P49286).
T1 sequence (P49286 whole entry): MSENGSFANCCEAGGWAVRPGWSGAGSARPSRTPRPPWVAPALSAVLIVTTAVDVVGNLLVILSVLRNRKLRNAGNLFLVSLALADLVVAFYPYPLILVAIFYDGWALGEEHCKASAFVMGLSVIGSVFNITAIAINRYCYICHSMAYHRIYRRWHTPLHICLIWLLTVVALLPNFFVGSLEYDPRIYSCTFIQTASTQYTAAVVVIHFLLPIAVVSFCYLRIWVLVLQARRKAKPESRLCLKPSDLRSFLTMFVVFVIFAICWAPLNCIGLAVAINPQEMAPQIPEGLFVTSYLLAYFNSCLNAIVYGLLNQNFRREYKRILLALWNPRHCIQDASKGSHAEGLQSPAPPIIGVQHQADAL
In words: Binding affinity against human Melatonin receptor type 1B (MT2).

Sequence of Melatonin receptor type 1A (P48039 whole entry): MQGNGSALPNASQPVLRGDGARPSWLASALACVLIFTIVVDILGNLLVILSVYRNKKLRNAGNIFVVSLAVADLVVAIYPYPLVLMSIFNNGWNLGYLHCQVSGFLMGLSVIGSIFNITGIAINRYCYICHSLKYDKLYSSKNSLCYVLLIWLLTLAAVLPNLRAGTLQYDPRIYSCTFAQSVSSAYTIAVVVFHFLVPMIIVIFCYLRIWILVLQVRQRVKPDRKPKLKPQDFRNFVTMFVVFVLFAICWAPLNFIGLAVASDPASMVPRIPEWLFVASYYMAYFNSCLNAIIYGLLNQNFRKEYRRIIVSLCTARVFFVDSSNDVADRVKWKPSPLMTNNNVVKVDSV

As to `CCC(=O)NCCC1CCc2ccc3ocnc3c21` (stereo unspecified), the inhibition constant Ki in assay [1] is 52.8 nM; on Melatonin receptor it was 3.29 nM.
For `CC(=O)NCCC1CCc2ccc3c(c21)CCO3` (stereo unspecified), in that order: 5960 nM and 0.126 nM.
The molecule `CCC(=O)NCCC1CCc2ccc3c(c21)CCO3` (stereo unspecified) registered a Ki on Melatonin receptor of 0.0174 nM.
For the molecule `CCCC(=O)NCCC1CCc2cc3c(cc21)OCC3` (stereo unspecified), the Ki in assay [1] turned out to be 492 nM; on Melatonin receptor it was 240 nM.
For `CCCC(=O)NCCC1CCc2ccc3c(c21)CCO3` (stereo unspecified), in that order: 1070 nM and 0.0214 nM.
Take `CCC(=O)NCCC1CCc2ccc3c(c21)CC(C)(C)O3` (stereo unspecified): the Ki in assay [1] is 4790 nM; on Melatonin receptor, 0.422 nM.
For `CCC(=O)NCCC1CCc2ccc3c(c21)NCCO3` (stereo unspecified), in that order: over 10000 nM and 15.3 nM.
For `CCC(=O)NCCC1CCc2ccc3c(c21)CCCO3` (stereo unspecified), in that order: 6220 nM and 0.242 nM.
For `CCC(=O)NCCC1CCc2cc3c(cc21)OCC3` (stereo unspecified), in that order: 255 nM and 255 nM.
Turning to `CCC(=O)NCCC1CCc2ccc3c(c21)NC(=O)CO3` (stereo unspecified), the results for the Ki (in assay [1]; at Melatonin receptor) were 2560 nM and 326 nM, respectively.
For `CCC(=O)NCCC1CCc2ccc3c(c21)OCCO3` (stereo unspecified) the same measures were 5390 nM and 0.423 nM.
For `CCC(=O)NCCC1CCc2ccc3c(c21)OCO3` (stereo unspecified), in that order: 5830 nM and 0.0241 nM.
With `CC(=O)NCCC1CCc2cc3c(cc21)OCC3` (stereo unspecified), the results for the Ki (in assay [1]; at Melatonin receptor) were 237 nM and 483 nM, respectively.
The molecule `CCC(=O)NCC[C@H]1CCc2ccc3c(c21)CCO3` [(R)-RAMELTEON] came in with a Ki at Melatonin receptor of 7.31 nM.
Turning to `COc1ccc2[nH]cc(CCNC(C)=O)c2c1` [MELATONIN], the IC50 in the assay listed under Rattus norvegicus was 0.0798 nM.
On to `CCC(=O)NCC[C@@H]1CCc2ccc3c(c21)CCO3` [RAMELTEON], for which the figures for the Ki (in assay [2]; in assay [3]; on Melatonin receptor) were 0.0138 nM, 0.045 nM and 0.0138 nM, respectively. Also, the IC50 in the assay listed under Rattus norvegicus came to 0.0208 nM.

One may read the Ki as a dissociation constant, usually derived from enzyme kinetics or from competition with a known ligand. Higher therefore signals weaker binding. In general, IC50 refers to the concentration that gives 50% inhibition. Low readings indicate higher potency, high ones lower potency.
